Earlier results, collected in patent publication US20040024042A1, “COX2 inhibition in the prevention and treatment of autosomal dominant polycystic kidney disease” (Vanderbilt University, priority 2002, published 2004).
Each block holds one molecule with its values, some of them ahead of it.

Key:
Cytochrome P450 2C9 = Cytochrome P450 2C9 (Homo sapiens, UniProt P11712)
[1] = tested on: albumin and alpha1-acid glycoprotein; conditions: within the clinical dose range
[2] = not given; remark: listed apart in the source
mouse models of FAP = conditions: mice treated with COX2 inhibitor
[3] = not given; remark: listed apart in the source
warfarin metabolism = conditions: in vivo

Cytochrome P450 2C9, sequence (P11712 whole entry): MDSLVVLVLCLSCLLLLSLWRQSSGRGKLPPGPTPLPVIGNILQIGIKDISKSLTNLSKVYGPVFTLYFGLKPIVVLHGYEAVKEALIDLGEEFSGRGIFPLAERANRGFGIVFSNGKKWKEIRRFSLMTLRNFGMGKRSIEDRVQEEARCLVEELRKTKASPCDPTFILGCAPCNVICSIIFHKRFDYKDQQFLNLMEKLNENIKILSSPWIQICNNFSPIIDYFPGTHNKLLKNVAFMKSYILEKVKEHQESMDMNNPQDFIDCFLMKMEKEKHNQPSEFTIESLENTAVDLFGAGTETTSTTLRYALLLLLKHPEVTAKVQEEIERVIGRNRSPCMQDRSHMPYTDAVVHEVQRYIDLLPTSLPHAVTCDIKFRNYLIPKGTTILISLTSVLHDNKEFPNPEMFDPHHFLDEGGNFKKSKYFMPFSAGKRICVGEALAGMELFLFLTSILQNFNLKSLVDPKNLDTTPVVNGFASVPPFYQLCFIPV

- Major metabolizing enzyme (Cytochrome P450 2C9): Cytochrome P450 2C9
- Protein binding [1]: highly protein bound
- Time of peak plasma levels (after an oral dose): roughly 3 hours
- Effect of antacids on plasma concentrations (aluminum or magnesium containing antacids): decrease in plasma concentrations
- Effective half-life (fasted conditions): roughly 11 hours
- Dose excreted in feces (following a single dose): 57%
- Dose excreted in the urine (following a single dose): 27%
- Delay of plasma levels with food (taken with a high fat meal): 1 to 2 h
- Increase in total absorption with food (taken with a high fat meal): 10-20%
SMILES: Cc1ccc(-c2cc(C(F)(F)F)nn2-c2ccc(S(N)(=O)=O)cc2)cc1 [celecoxib, 4-[5-(4-methyphenyl)-3-(trifluoromethyl)-1H-pyrazol-1-yl] benzenesulfonamide]

- Time to steady state level ([2]; 25 mg qday): 4 days
- Increase of AUC in moderate hepatic insufficiency ([2]; Child-Pugh score 7-9): 69%
- Peak plasma concentration (Cmax) ([2]; after a 25-mg dose): 200 ng/mL
- Reduction of Cmax by antacids ([2]; antacids): 20%
- Reduction of extent of absorption by antacids ([2]; antacids): 10-15%
- Increase in bioavailability in elderly patients ([2]; elderly patients (>65 yrs) compared to young subjects): 34%
- Cd ([2]; in vivo): 90 L
- Dose excreted unchanged in the urine ([2]; in vivo): < 1%
- Oral bioavailability ([2]; in vivo, po): > 90%
- Accumulation factor ([2]; repeated administration): 1.67
- Cssmax ([2]; steady state, 25 mg qday): 320 ng/mL
- Increase of INR with warfarin (warfarin metabolism): about 10%
- Induction of the 3A4 isoform (Cytochrome P450 3A4; in vivo): mild inducer
- Substrate of the P450 system (Cytochrome P450 3A4; in vivo): not a substrate for the P450 system
- Reduction of the AUC of midazolam (Cytochrome P450 3A4; rofecoxib 25 mg daily): 30%
SMILES: CS(=O)(=O)c1ccc(C2=C(c3ccccc3)C(=O)OC2)cc1 [rofecoxib]
- Polyp formation (mouse models of FAP): marked reduction in polyp formation
- Crossing of the placenta and the blood-brain barrier ([3]; animal studies): able to cross the placenta and the blood-brain barrier
- Excretion in milk ([3]; lactating animals): excreted in the milk of lactating animals

SMILES: CC(=O)O[C@H]1C(=O)[C@@]2(C)[C@H]([C@H](OC(=O)c3ccccc3)[C@]3(O)C[C@H](OC(=O)[C@H](O)[C@@H](NC(=O)c4ccccc4)c4ccccc4)C(C)=C1C3(C)C)[C@]1(OC(C)=O)CO[C@@H]1C[C@@H]2O [Taxol]
- Progression of PKD (PKD in animal models): slow progression of PKD
